According to US5843904A, “Inhibitors of interleukin-1βconverting enzyme” (Vertex Pharmaceuticals, Inc., priority 1995, dated 1998):
Non-standard residues stand in square brackets, D forms with d. Residues, ends and D or L forms follow the SMILES beside them. No end group written: not given here. *: point of attachment. 4Abz = Nc1ccc(C(=O)O)cc1; Nphe = O=C(O)CNCc1ccccc1; Bz = O=C(c1ccccc1)*; CH2Cl = ClC*

target: T1, ICE (Homo sapiens, UniProt P29466); assay: Inhibition of ICE: enzyme assay with UV-visible substrate (Succinyl-Tyr-Val-Ala-Asp-pNitroanilide); type: biochemical; settings: UV-visible substrate assay of Example 1; pH 8.1, 37° C., 80 μM substrate
T1 construct: The active enzyme exists as a tetramer of two p20 and two p10 subunits
T1 sequence (P29466 120-297 limits assumed): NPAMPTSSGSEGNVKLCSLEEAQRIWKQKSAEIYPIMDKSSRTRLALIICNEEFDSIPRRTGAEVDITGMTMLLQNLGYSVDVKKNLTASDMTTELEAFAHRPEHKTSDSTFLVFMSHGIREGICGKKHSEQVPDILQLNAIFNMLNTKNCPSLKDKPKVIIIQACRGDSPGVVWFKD
T1 sequence (P29466 317-404 limits assumed): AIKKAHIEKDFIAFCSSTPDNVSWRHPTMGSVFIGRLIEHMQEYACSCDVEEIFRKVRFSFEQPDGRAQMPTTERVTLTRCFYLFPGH
Excerpt: The term "Ki " refers to a numerical measure of the effectiveness of a compound in inhibiting the activity of a target enzyme such as ICE. Lower values of Ki reflect higher effectiveness. The Ki value is a derived by fitting experimentally determined rate data to standard enzyme kinetic equations (see I. H. Segel, Enzyme Kinetics, Wiley-Interscience, 1975).
1. Enzyme assay with UV-visible substrate
This assay is run using an Succinyl-Tyr-Val-Ala-Asp-pNitroanilide substrate. Synthesis of analogous substrates is described by L. A. Reiter (Int. J. Peptide Protein Res. 43, 87-96 (1994)). The assay mixture contains:
65 μl buffer (10 mM Tris, 1 mM DTT, 0.1% CHAPS @pH 8.1)
10 μl ICE (50 nM final concentration to give a rate of ~1 mOD/min)
5 μl DMSO/Inhibitor mixture 20 μl 400 μM Substrate (80 μM final concentration)
100 μl total reaction volume
The visible ICE assay is run in a 96-well microtiter plate. Buffer, ICE and DMSO (if inhibitor is present) are added to the wells in the order listed. The components are left to incubate at room temperature for 15 minutes starting at the time that all components are present in all wells. The microtiter plate reader is set to incubate at 37° C. After the 15 minute incubation, substrate is added directly to the wells and the reaction is monitored by following the release of the chromophore (pNA) at 405-603 nm at 37° C. for 20 minutes. A linear fit of the data is performed and the rate is calculated in mOD/min. DMSO is only present during experiments involving inhibitors, buffer is used to make up the volume to 100 μl in the other experiments.
The following Ki values were determined for compounds 706, 710, 719, 720, 725-727, 729, 731, 733, 743, 745, and 747-757 using the assay described in Example 1.

| Compound | Ki |
| --- | --- |
| CC(C)[C@H](NC(=O)c1ccccc1)C(=O)N(CC(=O)N[C@H](C=O)CC(=O)O)Cc1ccccc1 [Compound 706, 3(S)-(2-((2(S)-Benzoylamino-3-methylbutyryl)benzylamino)acetylamino)-4-oxo-butyric Acid] (Bz-Val-[Nphe]-Asp-aldehyde) | 69 nM |
| CC(C)[C@H](NC(=O)c1ccccc1)C(=O)N(CC(=O)N[C@@H](CC(=O)O)C(=O)c1nc2cc(F)cc(Cl)c2o1)Cc1ccccc1 [Compound 719] | 20 nM |
| CC(C)[C@H](NC(=O)c1ccccc1)C(=O)N(CC(=O)N[C@@H](CC(=O)O)C(=O)c1nc2cc(Cl)cc(Cl)c2o1)Cc1cccnc1 [Compound 720] | 33 nM |
| CC(C)[C@H](NC(=O)c1ccccc1)C(=O)N(CC(=O)N[C@@H](CC(=O)O)C(=O)c1nc2cc(F)cc(F)c2o1)C1Cc2ccccc2C1 [Compound 726] | 15 nM |
| CC(C)[C@H](NC(=O)c1ccc(Cl)cc1)C(=O)N(CC(=O)N[C@@H](CC(=O)O)C(=O)c1ncc(-c2c(Cl)cccc2Cl)o1)C1Cc2ccccc2C1 [Compound 733] | 7.5 nM |
| CC(=O)Nc1cccc(CN(CC(=O)N[C@H](C=O)CC(=O)O)C(=O)[C@@H](NC(=O)c2ccccc2)C(C)C)c1 [Compound 743, 3(S)-(2-((3-Acetylaminobenzyl)-(2(S)-benzoylamino-3-methylbutyryl)amino)acetylamino)-4-oxo-butyric Acid] | 60 nM |
| CC(C)[C@H](NC(=O)c1ccccc1)C(=O)N(CC(=O)N[C@H](C=O)CC(=O)O)Cc1cccc(NS(C)(=O)=O)c1 [Compound 745] | 45 nM |
| CC(C)(C)[C@H](NC(=O)c1nccc2ccccc12)C(=O)N(CC(=O)N[C@H](C=O)CC(=O)O)Cc1ccccc1 [Compound 747, 3(S)-(2(S)-(Benzyl-(2-((isoquinoline-1-carbonyl)amino)-3,3-dimethylbutyryl)amino)acetylamino)-4-oxo-butyric Acid] | 24 nM |
| CC(C)[C@H](NC(=O)c1nccc2ccccc12)C(=O)N(CC(=O)N[C@H](C=O)CC(=O)O)Cc1ccccc1 [Compound 748, 3(S)-(2(S)-(Benzyl-(2-((isoquinoline-1-carbonyl)amino)-3-methylbutyryl)amino)acetylamino)-4-oxo-butyric Acid] | 6 nM |
| CC(C)[C@H](NC(=O)c1cccc2ccccc12)C(=O)N(CC(=O)N[C@H](C=O)CC(=O)O)Cc1ccccc1 [Compound 749, 3(S)-(2(S)-(Benzyl-(2-((napthalene-1-carbonyl)amino)-3-methylbutyryl)amino)acetylamino)-4-oxo-butyric Acid] | 7 nM |
| CC(C)[C@H](NC(=O)c1ccc(Cl)cc1)C(=O)N(CC(=O)N[C@H](C=O)CC(=O)O)Cc1ccccc1 [Compound 750, 3(5)-(2-((2(S)-(4-Chlorobenzoyl)amino-3-methylbutyryl)benzylamino)acetylamino)-4-oxo-butyric Acid] | 90 nM |
| CC(=O)Nc1ccc(C(=O)N[C@H](C(=O)N(CC(=O)N[C@H](C=O)CC(=O)O)Cc2ccccc2)C(C)C)cc1 [Compound 751, 3(S)-(2-((2(S)-(4-Acetylaminobenzoyl)amino-3-methylbutyryl)benzylamino)acetylamino)-4-oxo-butyric Acid] (Ac-[4Abz]V[Nphe]D-aldehyde) | 71 nM |
| COc1cc(C(=O)C(=O)N[C@H](C(=O)N(CC(=O)N[C@H](C=O)CC(=O)O)Cc2ccccc2)C(C)C)cc(OC)c1OC [Compound 752] | 62 nM |
| CC(C)[C@H](NC(=O)C(=O)c1ccccc1)C(=O)N(CC(=O)N[C@H](C=O)CC(=O)O)Cc1ccccc1 [Compound 753, 3(S)-(2(S)-(Benzyl(3-methyl-2-(2-oxo-2-phenylacetylamino)butyryl)amino)acetylamino)-4-oxo-butyric Acid] | 53 nM |
| CC(C)[C@H](NC(=O)c1ccccc1)C(=O)N(CC(=O)N[C@@H](C=O)CCC(=O)O)Cc1ccccc1 [Compound 754, 4(R)-(2(S)-((2-Benzoylamino-3-methylbutyryl)benzylamino)acetylamino)-5-oxopentanoic Acid] (Bz-Val-[Nphe]-[dE]-aldehyde) | 2500 nM |
| CC(C)[C@H](NC(=O)c1nccc2ccccc12)C(=O)N(CC(=O)N[C@@H](C=O)CCC(=O)O)Cc1ccccc1 [Compound 755, 4(R)-(2(S)-(Benzyl-(2-((isoquinoline-1-carbonyl)amino)-3-methylbutyryl)amino)acetylamino)-5-oxopentanoic Acid] | 390 nM |
| CC(C)[C@H](NC(=O)OCc1ccccc1)C(=O)N(CC(=O)N[C@H](C=O)CC(=O)O)C1Cc2ccccc2C1 [Compound 757, 3(S)-(2-((2(S)-(Benzyloxycarbonylamino-3-methylbutyryl)-indan-2-yl)amino)acetylamino)-4-oxobutyric Acid] | 170 nM |

tested on: primary cells or cell lines; assay: not given; settings: inhibition of one or more ICE homologs; cited from earlier work

| Compound | inhibition of apoptosis |
| --- | --- |
| Tyr-Val-Ala-Asp-chloromethylketone (YVAD-CH2Cl) | inhibition of apoptosis |
